# Laboratory results: patent US7166589B2, “Quinoline derivatives” (Hoffmann-La Roche Inc., priority 2001, dated 2007)
# Target: T1, mouse NPY5-receptor (mNPY5) (Mus musculus, UniProt O70342)
# T1 construct: The full-length cDNA encoding the mouse NPY5 (mNPY5) receptor was amplified from mouse brain cDNA; expressed in transfected cells
# T1 sequence (O70342 1-466): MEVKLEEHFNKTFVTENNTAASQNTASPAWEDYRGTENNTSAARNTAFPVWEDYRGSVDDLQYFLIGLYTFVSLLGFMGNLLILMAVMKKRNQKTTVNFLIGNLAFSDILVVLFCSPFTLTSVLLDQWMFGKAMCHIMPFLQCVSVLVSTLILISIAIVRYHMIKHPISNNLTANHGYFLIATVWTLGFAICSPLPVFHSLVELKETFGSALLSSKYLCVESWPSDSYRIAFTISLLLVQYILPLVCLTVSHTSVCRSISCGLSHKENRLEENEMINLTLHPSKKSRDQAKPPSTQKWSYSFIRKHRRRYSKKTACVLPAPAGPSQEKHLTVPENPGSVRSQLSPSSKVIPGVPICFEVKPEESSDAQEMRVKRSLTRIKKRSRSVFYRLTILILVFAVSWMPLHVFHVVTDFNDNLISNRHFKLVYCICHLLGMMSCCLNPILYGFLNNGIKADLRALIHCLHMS
# Assay: Radioligand competition binding, [125I]PYY, membranes of HEK293 cells expressing recombinant mouse NPY5 receptor
# Details: 100 pM [125I]labelled peptide YY, 1 h at 22° C.
# From the text: The full-length cDNA encoding the mouse NPY5 (mNPY5) receptor was amplified from mouse brain cDNA using specific primers, designed based on the published sequence, and Pfu DNA-Polymerase (Stratagene). The amplification product was subcloned into the mammalian expression vector pcDNA3 using Eco RI and XhoI restriction sites. Positive clones were sequenced and one clone, encoding the published sequence was selected for generation of stable cell clones.
# Human embryonic kidney 293 (HEK293) cells were transfected with 10 μg mNPY5 DNA using the lipofectamine reagent (Gibco BRL) according to the manufacturer's instruction. Two days after transfection, geneticin selection (1 mg/ml) was initiated and several stable clones were isolated. One clone was further used for pharmacological characterization.
# Human embryonic kidney 293 cells (HEK293), expressing recombinant mouse NPY5-receptor (mNPY5) were broken by three freeze/thawing cycles in hypotonic Tris buffer (5 mM, pH 7.4, 1 mM MgCl2), homogenized and centrifuged at 72,000×g for 15 min. The pellet was washed twice with 75 mM Tris buffer, pH 7.4, containing 25 mM MgCl2 and 250 mM sucrose, 0.1 mM phenylmethylsulfonylfluoride and 0.1 mM 1,10-pheneanthrolin, resuspended in the same buffer and stored in aliquots at −80° C. Protein was determined according to the method of Lowry using bovine serum albumine (BSA) as a standard.
row,IC50 [nM],SMILES
1,22,"Cc1cc(N2CCCC2)c2ccc(COc3ccc(C#N)cc3)cc2n1 [Example 5, 4-(2-Methyl-4-pyrrolidin-1-yl-quinolin-7-ylmethoxy)-benzonitrile]"
2,130,"Cc1cc(N2CCCC2)c2ccc(CNc3ccc(C#N)cc3)cc2n1 [Example 13, 4-[(2-Methyl-4-pyrrolidin-1-yl-quinolin-7-ylmethyl)-amino]-benzonitrile]"
